{"source": "ChEMBL document CHEMBL4699583", "about": "(J Med Chem, 2020)", "key": {"[1]": {"molecular_target": "Adenosine receptor A2a (Homo sapiens) (UniProt P29274)", "experiment": "Agonist activity at human adenosine A2A receptor at 2 uM by cell based calcium flux assay", "assay_type": "functional"}, "[2]": {"molecular_target": "Alpha-1A adrenergic receptor (Homo sapiens) (UniProt P35348)", "experiment": "Agonist activity at human ADRA1A at 2 uM by cell based calcium flux assay", "assay_type": "functional"}, "[3]": {"molecular_target": "5-hydroxytryptamine receptor 2B (Homo sapiens) (UniProt P41595)", "sequence (P41595 whole entry)": "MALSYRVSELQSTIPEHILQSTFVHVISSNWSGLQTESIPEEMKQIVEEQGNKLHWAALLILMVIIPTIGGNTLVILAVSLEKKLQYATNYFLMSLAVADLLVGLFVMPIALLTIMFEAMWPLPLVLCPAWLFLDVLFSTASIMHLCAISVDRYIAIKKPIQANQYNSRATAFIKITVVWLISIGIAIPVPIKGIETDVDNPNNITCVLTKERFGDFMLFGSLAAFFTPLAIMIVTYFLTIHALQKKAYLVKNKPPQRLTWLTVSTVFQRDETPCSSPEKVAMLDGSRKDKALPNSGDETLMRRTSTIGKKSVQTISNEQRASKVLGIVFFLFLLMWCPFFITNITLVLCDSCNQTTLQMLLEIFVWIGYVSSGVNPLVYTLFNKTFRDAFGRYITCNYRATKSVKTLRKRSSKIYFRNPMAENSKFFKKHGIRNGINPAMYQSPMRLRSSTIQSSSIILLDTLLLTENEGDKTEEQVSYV", "experiment": "Agonist activity at human 5HT2B receptor at 2 uM by cell based calcium flux assay", "assay_type": "functional"}, "[4]": {"molecular_target": "T1, GABA-A receptor; alpha-1/beta-2/gamma-2 (Homo sapiens) (UniProt P14867+P47870+P18507)", "experiment": "Inactivation of human GABA alpha1beta2gamma2 receptor at 2 uM by cell based assay"}, "[5]": {"molecular_target": "D(2) dopamine receptor (Homo sapiens) (UniProt P14416)", "sequence (P14416 whole entry)": "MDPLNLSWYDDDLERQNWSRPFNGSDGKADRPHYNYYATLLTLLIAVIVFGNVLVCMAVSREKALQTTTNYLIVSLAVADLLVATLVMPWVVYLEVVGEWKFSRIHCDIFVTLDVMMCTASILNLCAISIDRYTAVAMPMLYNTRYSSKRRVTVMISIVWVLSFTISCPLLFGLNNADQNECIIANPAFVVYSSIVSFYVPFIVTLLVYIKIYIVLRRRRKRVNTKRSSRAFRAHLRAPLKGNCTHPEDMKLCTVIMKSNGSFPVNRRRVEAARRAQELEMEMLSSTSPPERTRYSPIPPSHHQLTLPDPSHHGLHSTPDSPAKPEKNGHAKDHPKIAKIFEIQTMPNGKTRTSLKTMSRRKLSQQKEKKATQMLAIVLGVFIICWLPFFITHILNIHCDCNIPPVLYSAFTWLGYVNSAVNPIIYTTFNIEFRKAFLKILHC", "experiment": "Agonist activity at human dopamine D2S receptor at 2 uM by cell based cAMP assay", "assay_type": "functional"}, "[6]": {"molecular_target": "Prostaglandin G/H synthase 2 (Homo sapiens) (UniProt P35354)", "experiment": "Inhibition of human COX2 at 2 uM"}, "[7]": {"molecular_target": "T2, Voltage-gated potassium channel, IKs; KCNQ1(Kv7.1)/KCNE1(MinK) (Homo sapiens, UniProt P51787+P15382)", "experiment": "Activation of human KvLQT1/mink at 2 uM by thallium flux assay", "assay_type": "protein-complex assay"}, "[8]": {"molecular_target": "Muscarinic acetylcholine receptor M3 (Homo sapiens) (UniProt P20309)", "experiment": "Antagonist activity at human muscarinic acetylcholine receptor M3 at 2 uM by cell based calcium flux assay", "assay_type": "functional"}, "[9]": {"molecular_target": "Cannabinoid receptor 1 (Homo sapiens) (UniProt P21554)", "experiment": "Agonist activity at human cannabinoid receptor 1 at 2 uM by cell based cAMP assay", "assay_type": "functional"}, "[10]": {"molecular_target": "Muscarinic acetylcholine receptor M2 (Homo sapiens) (UniProt P08172)", "experiment": "Antagonist activity at human muscarinic acetylcholine receptor M2 at 2 uM by cell based cAMP assay", "assay_type": "functional"}, "[11]": {"molecular_target": "T3, DNA topoisomerase 2-alpha (Homo sapiens, UniProt P11388)", "T3 sequence (P11388 whole entry)": "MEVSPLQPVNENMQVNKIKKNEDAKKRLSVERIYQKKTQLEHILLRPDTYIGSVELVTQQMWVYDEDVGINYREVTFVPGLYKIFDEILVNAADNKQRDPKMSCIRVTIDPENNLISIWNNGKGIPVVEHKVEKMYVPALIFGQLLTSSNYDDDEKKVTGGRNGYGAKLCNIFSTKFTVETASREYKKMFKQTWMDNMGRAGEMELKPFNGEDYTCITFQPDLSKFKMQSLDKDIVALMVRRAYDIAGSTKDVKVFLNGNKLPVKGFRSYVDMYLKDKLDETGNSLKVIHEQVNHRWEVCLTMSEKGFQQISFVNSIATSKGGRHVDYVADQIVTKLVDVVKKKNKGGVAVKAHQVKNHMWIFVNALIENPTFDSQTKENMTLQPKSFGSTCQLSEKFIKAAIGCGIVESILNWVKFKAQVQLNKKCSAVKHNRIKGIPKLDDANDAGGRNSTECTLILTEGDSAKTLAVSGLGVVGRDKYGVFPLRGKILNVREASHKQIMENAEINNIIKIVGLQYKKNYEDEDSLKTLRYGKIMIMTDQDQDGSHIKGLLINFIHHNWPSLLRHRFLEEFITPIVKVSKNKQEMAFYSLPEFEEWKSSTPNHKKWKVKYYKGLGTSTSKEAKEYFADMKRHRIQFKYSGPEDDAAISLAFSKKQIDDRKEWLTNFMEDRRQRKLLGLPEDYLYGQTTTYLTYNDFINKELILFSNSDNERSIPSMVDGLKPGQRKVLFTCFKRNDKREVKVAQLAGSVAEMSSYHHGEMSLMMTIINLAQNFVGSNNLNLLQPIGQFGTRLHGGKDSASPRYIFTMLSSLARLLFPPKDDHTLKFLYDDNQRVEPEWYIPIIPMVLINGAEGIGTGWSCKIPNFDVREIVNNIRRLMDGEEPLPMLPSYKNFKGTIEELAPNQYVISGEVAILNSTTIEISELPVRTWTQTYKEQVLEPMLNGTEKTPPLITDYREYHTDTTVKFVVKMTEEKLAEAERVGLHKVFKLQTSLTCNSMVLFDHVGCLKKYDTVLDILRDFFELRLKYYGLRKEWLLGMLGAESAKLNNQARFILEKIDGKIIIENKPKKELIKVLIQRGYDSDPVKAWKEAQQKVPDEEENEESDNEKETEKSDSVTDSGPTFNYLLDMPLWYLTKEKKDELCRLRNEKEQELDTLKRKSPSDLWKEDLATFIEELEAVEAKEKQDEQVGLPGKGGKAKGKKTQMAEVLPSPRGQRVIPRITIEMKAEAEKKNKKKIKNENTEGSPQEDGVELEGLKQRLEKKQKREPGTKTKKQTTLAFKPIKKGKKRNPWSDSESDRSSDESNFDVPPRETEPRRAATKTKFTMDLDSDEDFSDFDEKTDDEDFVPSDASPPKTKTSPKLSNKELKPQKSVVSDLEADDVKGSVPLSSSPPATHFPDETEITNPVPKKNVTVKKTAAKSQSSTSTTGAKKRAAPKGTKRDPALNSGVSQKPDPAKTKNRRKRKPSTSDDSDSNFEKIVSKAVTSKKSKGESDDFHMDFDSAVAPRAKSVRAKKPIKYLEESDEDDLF", "experiment": "Poison activity at human topoisomerase 2alpha assessed as DNA cleavage by measuring linear DNA formation using supercoiled pBR322 DNA as substrate at 5 to 200 uM measured after 6 mins by agarose gel electrophoresis method", "settings": "0.1 h, dose 5-200 µM"}, "[12]": {"species": "Homo sapiens", "experiment": "Activation of human 5HT3A channel at 2 uM by cell based calcium flux assay"}, "[13]": {"molecular_target": "D(1A) dopamine receptor (Homo sapiens) (UniProt P21728)", "sequence (P21728 whole entry)": "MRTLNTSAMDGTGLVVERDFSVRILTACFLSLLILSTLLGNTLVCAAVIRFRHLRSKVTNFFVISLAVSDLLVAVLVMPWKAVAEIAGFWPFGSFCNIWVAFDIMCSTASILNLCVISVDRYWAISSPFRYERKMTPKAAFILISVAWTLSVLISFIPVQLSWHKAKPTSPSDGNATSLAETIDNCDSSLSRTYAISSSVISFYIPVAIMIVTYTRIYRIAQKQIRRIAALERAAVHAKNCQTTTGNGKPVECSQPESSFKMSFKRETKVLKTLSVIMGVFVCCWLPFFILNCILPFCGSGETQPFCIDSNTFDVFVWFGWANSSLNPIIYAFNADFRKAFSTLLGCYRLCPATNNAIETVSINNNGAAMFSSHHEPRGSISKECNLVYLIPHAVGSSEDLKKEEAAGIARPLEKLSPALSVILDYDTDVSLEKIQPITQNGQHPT", "experiment": "Agonist activity at human dopamine D1 receptor at 2 uM by cell based cAMP assay", "assay_type": "functional"}, "[14]": {"molecular_target": "T2, Voltage-gated potassium channel, IKs; KCNQ1(Kv7.1)/KCNE1(MinK)", "experiment": "Inhibition of human KvLQT1/mink at 2 uM by thallium flux assay", "assay_type": "protein-complex assay"}, "[15]": {"molecular_target": "Beta-2 adrenergic receptor (Homo sapiens) (UniProt P07550)", "experiment": "Agonist activity at human beta-2 adrenergic receptor at 2 uM by cell based cAMP assay", "assay_type": "functional"}, "[16]": {"molecular_target": "5-hydroxytryptamine receptor 2A (Homo sapiens) (UniProt P28223)", "experiment": "Antagonist activity at human 5HT2A receptor at 2 uM by cell based calcium flux assay", "assay_type": "functional"}, "[17]": {"experiment": "Drug uptake in C57B6/J mouse brain at 10 mg/kg, ip administered as single dose measured after 60 to 360 mins by UPLC/MS TQD analysis", "assay_type": "ADME, organism-based", "settings": "in vivo, time 60-360 min"}, "[18]": {"molecular_target": "Sodium channel protein type 5 subunit alpha (Homo sapiens, UniProt Q14524)", "experiment": "Inhibition of human Nav1.5 at 2 uM by cell-based assay"}, "[19]": {"molecular_target": "5-hydroxytryptamine receptor 1B (Homo sapiens) (UniProt P28222)", "experiment": "Agonist activity at human 5HT1B receptor at 2 uM by cell based cAMP assay", "assay_type": "functional"}, "[20]": {"molecular_target": "Androgen receptor (Homo sapiens) (UniProt P10275)", "experiment": "Agonist activity at human androgen receptor at 2 uM by cell based nuclear translocation assay"}, "[21]": {"molecular_target": "5-hydroxytryptamine receptor 2B (Homo sapiens) (UniProt P41595)", "experiment": "Antagonist activity at human 5HT2B receptor at 2 uM by cell based calcium flux assay", "assay_type": "functional"}, "[22]": {"molecular_target": "D(2) dopamine receptor (Homo sapiens) (UniProt P14416)", "experiment": "Antagonist activity at human dopamine D2S receptor at 2 uM by cell based cAMP assay", "assay_type": "functional"}, "[23]": {"molecular_target": "Beta-1 adrenergic receptor (Homo sapiens) (UniProt P08588)", "experiment": "Agonist activity at human adrenergic beta1 receptor at 2 uM by cell based cAMP assay", "assay_type": "functional"}, "[24]": {"molecular_target": "Androgen receptor (Homo sapiens) (UniProt P10275)", "experiment": "Antagonist activity at human androgen receptor at 2 uM by cell based nuclear translocation assay"}, "[25]": {"molecular_target": "Histamine H2 receptor (Homo sapiens) (UniProt P25021)", "experiment": "Agonist activity at human histamine H2 receptor at 2 uM by cell based cAMP assay", "assay_type": "functional"}, "[26]": {"molecular_target": "Cannabinoid receptor 1 (Homo sapiens) (UniProt P21554)", "experiment": "Antagonist activity at human cannabinoid receptor 1 at 2 uM by cell based cAMP assay", "assay_type": "functional"}, "[27]": {"molecular_target": "Glucocorticoid receptor (Homo sapiens) (UniProt P04150)", "sequence (P04150 whole entry)": "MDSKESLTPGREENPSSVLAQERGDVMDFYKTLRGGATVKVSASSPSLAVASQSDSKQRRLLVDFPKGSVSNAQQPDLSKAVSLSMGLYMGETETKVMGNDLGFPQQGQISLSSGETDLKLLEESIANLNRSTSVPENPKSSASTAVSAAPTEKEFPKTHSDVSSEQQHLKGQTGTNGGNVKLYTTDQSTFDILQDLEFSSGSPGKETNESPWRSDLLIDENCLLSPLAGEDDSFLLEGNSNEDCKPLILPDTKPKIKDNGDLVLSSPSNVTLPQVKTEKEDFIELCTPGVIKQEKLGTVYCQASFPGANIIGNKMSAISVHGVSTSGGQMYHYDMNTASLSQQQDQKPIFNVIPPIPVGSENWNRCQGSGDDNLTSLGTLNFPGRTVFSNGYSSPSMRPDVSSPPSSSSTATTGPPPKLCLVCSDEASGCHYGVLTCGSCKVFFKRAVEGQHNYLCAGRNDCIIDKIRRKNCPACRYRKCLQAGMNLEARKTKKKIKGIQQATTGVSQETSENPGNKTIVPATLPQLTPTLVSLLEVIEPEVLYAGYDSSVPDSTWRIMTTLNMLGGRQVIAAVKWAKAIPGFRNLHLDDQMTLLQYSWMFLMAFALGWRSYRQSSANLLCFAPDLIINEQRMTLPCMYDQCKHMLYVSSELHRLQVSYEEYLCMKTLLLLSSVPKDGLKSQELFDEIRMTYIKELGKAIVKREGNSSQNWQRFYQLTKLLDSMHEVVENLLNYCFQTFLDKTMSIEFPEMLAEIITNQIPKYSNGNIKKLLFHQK", "experiment": "Antagonist activity at human glucocorticoid receptor at 2 uM by cell based assay"}, "[28]": {"molecular_target": "Delta-type opioid receptor (Homo sapiens) (UniProt P41143)", "sequence (P41143 whole entry)": "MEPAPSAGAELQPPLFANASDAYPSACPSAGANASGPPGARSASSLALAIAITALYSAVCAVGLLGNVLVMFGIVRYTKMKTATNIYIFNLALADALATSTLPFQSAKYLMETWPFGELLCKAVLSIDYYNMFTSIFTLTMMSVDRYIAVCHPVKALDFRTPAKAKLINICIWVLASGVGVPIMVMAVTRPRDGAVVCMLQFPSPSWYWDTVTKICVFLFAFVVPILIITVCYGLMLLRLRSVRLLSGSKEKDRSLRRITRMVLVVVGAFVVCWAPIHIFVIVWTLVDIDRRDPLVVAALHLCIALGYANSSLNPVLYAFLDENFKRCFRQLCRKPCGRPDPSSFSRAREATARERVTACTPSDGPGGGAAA", "experiment": "Antagonist activity at human delta opioid receptor at 2 uM by cell based cAMP assay", "assay_type": "functional"}, "[29]": {"molecular_target": "Vasopressin V1a receptor (Homo sapiens) (UniProt P37288)", "experiment": "Agonist activity at human vasopressin V1a receptor at 2 uM by cell based calcium flux assay", "assay_type": "functional"}, "[30]": {"molecular_target": "Histamine H1 receptor (Homo sapiens) (UniProt P35367)", "sequence (P35367 whole entry)": "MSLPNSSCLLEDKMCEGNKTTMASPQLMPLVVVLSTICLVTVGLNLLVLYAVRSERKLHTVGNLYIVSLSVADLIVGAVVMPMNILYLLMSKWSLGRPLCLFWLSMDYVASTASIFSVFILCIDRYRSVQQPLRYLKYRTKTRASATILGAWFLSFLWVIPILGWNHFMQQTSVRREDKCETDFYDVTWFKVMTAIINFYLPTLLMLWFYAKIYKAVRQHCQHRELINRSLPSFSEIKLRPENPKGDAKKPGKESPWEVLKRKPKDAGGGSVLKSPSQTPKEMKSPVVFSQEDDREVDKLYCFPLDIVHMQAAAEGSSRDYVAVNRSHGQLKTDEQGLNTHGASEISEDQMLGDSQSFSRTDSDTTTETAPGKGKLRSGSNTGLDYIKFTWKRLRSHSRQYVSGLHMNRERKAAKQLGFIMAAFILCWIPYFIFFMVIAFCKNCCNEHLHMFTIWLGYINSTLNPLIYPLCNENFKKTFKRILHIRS", "experiment": "Agonist activity at human histamine H1 receptor at 2 uM by cell based calcium flux assay", "assay_type": "functional"}, "[31]": {"molecular_target": "T1, GABA-A receptor; alpha-1/beta-2/gamma-2 (Homo sapiens)", "experiment": "Activation of human GABA alpha1beta2gamma2 receptor at 2 uM by cell based assay"}, "[32]": {"molecular_target": "Histamine H1 receptor (Homo sapiens) (UniProt P35367)", "experiment": "Antagonist activity at human histamine H1 receptor at 2 uM by cell based calcium flux assay", "assay_type": "functional"}, "[33]": {"molecular_target": "5-hydroxytryptamine receptor 1A (Homo sapiens) (UniProt P08908)", "sequence (P08908 whole entry)": "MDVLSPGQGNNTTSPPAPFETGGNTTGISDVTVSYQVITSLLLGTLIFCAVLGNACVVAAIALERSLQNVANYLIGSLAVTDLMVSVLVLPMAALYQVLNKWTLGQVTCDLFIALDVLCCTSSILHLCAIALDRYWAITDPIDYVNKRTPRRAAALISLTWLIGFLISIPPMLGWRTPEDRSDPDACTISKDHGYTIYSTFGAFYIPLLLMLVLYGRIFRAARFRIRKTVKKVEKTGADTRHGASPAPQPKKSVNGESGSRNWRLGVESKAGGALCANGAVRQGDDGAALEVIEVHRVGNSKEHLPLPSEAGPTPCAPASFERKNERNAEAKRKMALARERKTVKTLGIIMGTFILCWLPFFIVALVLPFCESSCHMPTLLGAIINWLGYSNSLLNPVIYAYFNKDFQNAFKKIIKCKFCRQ", "experiment": "Antagonist activity at human 5HT1A receptor at 2 uM by cell based cAMP assay", "assay_type": "functional"}, "[34]": {"molecular_target": "3',5'-cyclic-AMP phosphodiesterase 4D (Homo sapiens) (UniProt Q08499)", "experiment": "Inhibition of human PDE4D2 at 2 uM"}, "[35]": {"molecular_target": "Kappa-type opioid receptor (Homo sapiens) (UniProt P41145)", "experiment": "Agonist activity at human kappa opioid receptor at 2 uM by cell based cAMP assay", "assay_type": "functional"}, "[36]": {"molecular_target": "Delta-type opioid receptor (Homo sapiens) (UniProt P41143)", "experiment": "Agonist activity at human delta opioid receptor at 2 uM by cell based cAMP assay", "assay_type": "functional"}, "[37]": {"molecular_target": "T3, DNA topoisomerase 2-alpha", "experiment": "Poison activity at human topoisomerase 2alpha in human Hela cells assessed as H2AX phosphorylation at 10 uM incubated for 90 mins by Western blot analysis", "assay_type": "cell-based"}, "[38]": {"molecular_target": "D(1A) dopamine receptor (Homo sapiens) (UniProt P21728)", "experiment": "Antagonist activity at human dopamine D1 receptor at 2 uM by cell based cAMP assay", "assay_type": "functional"}, "[39]": {"molecular_target": "Voltage-dependent L-type calcium channel subunit alpha-1C (Homo sapiens, UniProt Q13936)", "experiment": "Inhibition of human L-type calcium channel Cav1.2 at 2 uM by cell based assay"}, "[40]": {"molecular_target": "5-hydroxytryptamine receptor 2A (Homo sapiens) (UniProt P28223)", "experiment": "Agonist activity at human 5HT2A receptor at 2 uM by cell based calcium flux assay", "assay_type": "functional"}, "[41]": {"molecular_target": "Glucocorticoid receptor (Homo sapiens) (UniProt P04150)", "experiment": "Agonist activity at human glucocorticoid receptor at 2 uM by cell based assay"}, "[42]": {"molecular_target": "5-hydroxytryptamine receptor 1A (Homo sapiens) (UniProt P08908)", "experiment": "Agonist activity at human 5HT1A receptor at 2 uM by cell based cAMP assay", "assay_type": "functional"}, "[43]": {"molecular_target": "Mu-type opioid receptor (Homo sapiens) (UniProt P35372)", "experiment": "Antagonist activity at human mu opioid receptor at 2 uM by cell based cAMP assay", "assay_type": "functional"}, "[44]": {"molecular_target": "Insulin receptor (Homo sapiens) (UniProt P06213)", "experiment": "Inhibition of human INSR at 2 uM"}}, "note": "Activity calls are given as the source filed them. The calls are words filed in the database; no cut-off is given here.", "data": [{"smiles": "CN(C)c1ccc(Nc2nc(-c3ccncc3)nc3c2CC(N)CC3)cc1", "note": "(centres undefined)", "values": [{"measurement": "Activity", "setting": "[1]", "value": "inactive"}, {"measurement": "Activity", "setting": "[2]", "value": "inactive"}, {"measurement": "Activity", "setting": "[3]", "value": "inactive"}, {"measurement": "Activity", "setting": "[4]", "value": "inactive"}, {"measurement": "Activity", "setting": "[5]", "value": "inactive"}, {"measurement": "inhibition", "setting": "[6]", "value": "inactive"}, {"measurement": "Activity", "setting": "[7]", "value": "Not Active"}, {"measurement": "Activity", "setting": "[8]", "value": "inactive"}, {"measurement": "Activity", "setting": "[9]", "value": "inactive"}, {"measurement": "Activity", "setting": "[10]", "value": "inactive"}, {"measurement": "Activity", "setting": "[11]", "value": "Not Active"}, {"measurement": "Activity", "setting": "[12]", "value": "inactive"}, {"measurement": "Activity", "setting": "[13]", "value": "inactive"}, {"measurement": "inhibition (INH)", "setting": "[14]", "value": "Not Active"}, {"measurement": "Activity", "setting": "[15]", "value": "inactive"}, {"measurement": "Activity", "setting": "[16]", "value": "inactive"}, {"measurement": "Drug uptake", "setting": "[17]", "value": "Active"}, {"measurement": "inhibition (INH)", "setting": "[18]", "value": "Not Active"}, {"measurement": "Activity", "setting": "[19]", "value": "inactive"}, {"measurement": "Activity", "setting": "[20]", "value": "inactive"}, {"measurement": "Activity", "setting": "[21]", "value": "inactive"}, {"measurement": "Activity", "setting": "[22]", "value": "inactive"}, {"measurement": "Activity", "setting": "[23]", "value": "inactive"}, {"measurement": "Activity", "setting": "[24]", "value": "inactive"}, {"measurement": "Activity", "setting": "[25]", "value": "inactive"}, {"measurement": "Activity", "setting": "[26]", "value": "inactive"}, {"measurement": "Activity", "setting": "[27]", "value": "inactive"}, {"measurement": "Activity", "setting": "[28]", "value": "inactive"}, {"measurement": "Activity", "setting": "[29]", "value": "inactive"}, {"measurement": "Activity", "setting": "[30]", "value": "inactive"}, {"measurement": "Activity", "setting": "[31]", "value": "inactive"}, {"measurement": "Activity", "setting": "[32]", "value": "inactive"}, {"measurement": "Activity", "setting": "[33]", "value": "inactive"}, {"measurement": "inhibition", "setting": "[34]", "value": "inactive"}, {"measurement": "Activity", "setting": "[35]", "value": "inactive"}, {"measurement": "Activity", "setting": "[36]", "value": "inactive"}, {"measurement": "Activity", "setting": "[37]", "value": "Not Active"}, {"measurement": "Activity", "setting": "[38]", "value": "inactive"}, {"measurement": "inhibition (INH)", "setting": "[39]", "value": "Not Active"}, {"measurement": "Activity", "setting": "[40]", "value": "inactive"}, {"measurement": "Activity", "setting": "[41]", "value": "inactive"}, {"measurement": "Activity", "setting": "[42]", "value": "inactive"}, {"measurement": "Activity", "setting": "[43]", "value": "inactive"}, {"measurement": "inhibition", "setting": "[44]", "value": "inactive"}]}]}
